# Experimental data from patent US12245591B2, “Templated antimicrobial microgels and methods of making and using the same” (THE BOARD OF TRUSTEES OF THE UNIVERSITY OF ARKANSAS, priority 2019, dated 2025).
# Read-outs that look alike come from different tables or passages of the source.
# Legend:
# [1] = system: S. aureus (ATCC 25923); assay: Minimal inhibitory concentration (MIC), broth microdilution, S. aureus; format: cell-based; settings: for MIC: Staphylococcus aureus
# Description: (§1) The minimal inhibitory concentration (MIC) and minimal bactericidal concentration (MBC) by broth microdilution assays in 96-well plates to determine antimicrobial activity of selected agents against Gram-positive and Gram-negative bacteria
# (§2) Antimicrobial materials: In a typical experiment, the synthesized polymers were prepared for antimicrobial assays as described for the kinetic assays in Example 4(A), except as indicated in Tables 7-10 and 12.
# (§3) Mueller Hinton broth (MHB): A sterile broth is prepared with 4.50 g Mueller Hinton base (Hardy Diagnostics) in 200 mL deionized water. The broth is cooled to room temperature after being autoclaved and stored at 4° C. until use.
# (§4) Propagation of bacterial cells: Typically, 500 μL aliquots of S. aureus (ATCC® 25923™) or E. coli (BL21 DE3) cells are used to inoculate 5 mL of Mueller Hinton broth. The inoculum is shaken at 37° C. and 240 rpm for 6 h. Then, 500 μL aliquots are transferred to individual vessels, flash-frozen in liquid nitrogen, and stored as pre-starter cultures at −20° C. until use.
# (§5) Growth of bacterial cells: A 500 μL pre-starter culture is used to inoculate 5 mL of Mueller Hinton broth at 37° C. After 5 h of shaking at 240 rpm, a 500 μL of the inoculum is diluted to 20 mL with sterile MHB, followed by three successive 1:10 dilutions of 1000 μL of the resulting solutions into 10 mL MHB. Subsequently, 50 μL of the most dilute cell suspension is spread on a Mueller-Hinton agar plate, and incubated at 37° C. After 24 h, selected colonies are re-suspended in 4 mL of Mueller-Hinton broth and diluted until their OD625 value matched that of a 0.5 McFarland standard at 37° C. to account for a cell concentration of 1×10^8 CFU/mL. Typically, a 50 μL aliquot of the cell suspension is diluted into 10 mL of Mueller-Hinton broth to obtain a stock solution of S. aureus cells at a concentration of 5×10^5 CFU/mL. Typically, two separate inoculums are prepared immediately prior to use.
# (§6) Preparation of broth microdilution assays and data recording: Following standard procedures for conducting broth microdilution assays, 100 μL aliquots of Mueller-Hinton broth are added to each well. Subsequently, a 100 μL aliquot of the sterile antimicrobial agent solution is added in the first column of the plate and then diluted in a serial manner by subsequent transfers of 100 μL aliquots over the first 10 columns. […] Typically, the absorbance in each well is then monitored at 595 nm and 37° C. over a 16 h period in 2 h intervals.
# (§7) Data analysis: The obtained absorbance data are plotted against time to determine the steady state point of cell growth. The change of absorbance at this time for wells with and without antimicrobial agent is then plotted against the concentration of the antimicrobial agent. […]
# [2] = system: E. coli (BL21 DE3); assay: Minimal inhibitory concentration (MIC), broth microdilution, E. coli; format: cell-based; settings: for MIC: Escherichia coli, read-out: MIC E. coli
# Description: as §1, §2, §3, §4, §5, §6, §7
# [3] = Coordination to binuclear complex Cu2bpdpo, isothermal titration calorimetry; format: binding; settings: coordination to the metal complex; pH 10.50, 10° C.
# Description: The coordination of galactonoamidine 1 to binuclear complexes was already evaluated in part and included Cu2bpdpo (5), a nonpolymerizable analogue of 3 (FIG. 15).
# [4] = Stability of galactonoamidine against hydrolysis under buffer and temperature conditions (HPLC, NMR); format: physicochemical
# Description: The instrumentation, reagents, and materials for this study were recently described. [Sharma, B. et al. Biomacromolecules 2018, 19, 1164-1174; Sharma, B. et al. […]. 2018, 8, 7710-7718] The computational analysis was performed with PQSmol as reported. [Sharma Biomacromolecules 2018; […]. et al. Dalton Trans. 2016, 45, 15203-15210; Becke, A. D. J. Chem. Phys. 1993, 98, 5648-5652; Lee, C. et al. Phys. Rev. B: Condens. Matter Mater. Phys. 1988, 37, 785-789; PQSmol, Version 4.1; Parallel Quantum Solutions: […]. et al. J. Chem. […] [[…]. et al. Bioorg. Med. Chem. 2016, 24, 3371-3377] Glyconoamidines are prone to nucleophilic attack at the anomeric C atom and subsequent hydrolysis in alkaline solution. Various glyconoamidines have been previously synthesized. [Bleriot, Y. et al. Bioorg. Med. Chem. Lett. 1995, 5, 2655-60; Bleriot, Y. et al. Tetrahedron Lett. 1994, 35, 1867-70; Heck, M.-P. et al. J. Am. Chem. Soc. 2004, 126, 1971-1979; […]. Res. 1996, 29, 340-347] We evaluated the hydrolysis of galactonoamidine 1 under various buffer and temperature conditions to ensure its stability under polymerization conditions. […] The stability of 1 was also observed at 0 and 10° C. over a 3 h time period in 5 mM CAPS buffer solution at pH 10.50. Buffer solutions with similar molarity at lower pH values behave likewise (FIG. 13).
# [5] = system: B21 DE3 E. coli cells; assay: Growth of E. coli cells in petridish assays with Müller-Hinton/agar media; format: cell-based; settings: 37° C., 12 h
# Description: Sterile Müller-Hinton/Agar (MH) media. 4.54 g Müller-Hinton media and 5.07 g agar were dissolved in 200 mL deionized water. The media were autoclaved and stored at 4° C. until use.
# E. coli cell culture. A 100 μL aliquot of B21 DE3 E. coli cells, purchased from New England Biolabs, were added to 1 mL of sterile Luria-Bertani broth; the culture was incubated for 2 hours at 37° C. Then, a 100 μL aliquot of this culture was diluted by serial dilution 200,000-fold with sterile LB (Miller's) media yielding 10 mL of a stock solution of the cell culture.
# Stock solution of low molecular weight complex Cu2bpdpo (catalyst 1). 5.28 mg of Cu2bpdpo were dissolved in 5 mL of 50 mM HEPES buffer at pH 7.00; a 1000 μl aliquot of the resulting solution was further diluted into 10 mL yielding a 160.3 μM stock solution of Cu2bpdpo.
# Stock solution of Hen Egg-white lysozyme (catalyst 2). 11.53 mg of lyophilized lysozyme purchased from AMRESCO were dissolved in 5 mL of 50 mM HEPES buffer at pH 7.00 and used as a 161.1 μM stock solution.
# Stock solutions of microgels (catalysts 3-5). All microgel stock solutions were treated as described above, but only diluted 1:5 during activation and then sterilized prior to use for these experiments. The stock solution for ^Cu2LPgal (40%) is 112.3 μM, for ^Cu2LPgal (60%) 145.6 μM and for ^Cu2LP1 (60%) 153.6 μM.
# Plate preparation. […]
# [6] = format: biochemical; settings: for Km / kcat: substrate β-9
# Description: 2.8.4. Catalytic Glycoside Hydrolysis. […]
# Substrate Stock Solution. […] As the glycoside precipitates in this concentration from aqueous solutions at ambient temperature, the resulting solution was kept above 50° C. until use.
# Catalyst Stock Solutions. The microgel dispersions were used as described above. […]
# Kinetic Assay. In a typical experiment, 20 μL of an activated microgel dispersion were added to aliquots of the glycoside stock solution (0-100 μL) and corresponding amounts of buffer solution, keeping the nominal volume of the resulting solutions at 200 μL. […] The product formation was read in 20 min intervals after orbital shaking of the solutions over 5 s each. All experiments were performed in duplicate or triplicate.
# Data Analysis. The collected fluorescence intensity was plotted over time, and a linear fit applied to the data collected between 140 and 480 min. The calculated rates of the reaction were then corrected by the corresponding apparent extinction coefficient and catalyst amount, averaged from two independent experiments, and plotted over the molar substrate concentration. Nonlinear regression of the resulting hyperbolic data yielded the rate constant kcat and the apparent substrate affinity KM. The rate constant of the uncatalyzed reaction knon was determined by applying a linear fit to the corrected rates of the collected data obtained in absence of catalyst. Data obtained in the presence of metal-ion free control polymer ^LPgal and from control polymer ^Cu2LPEG were treated likewise to estimate their catalytic efficiency.
# The turbidity of the aqueous microgel dispersions under consideration here increases visibly to the naked eye with the crosslinking content from 5 to 80 mol % EGDMA. As a consequence, the apparent extinction coefficient (εapp) was determined for each microgel under the respective assay conditions prior to analysis of related spectroscopic data. […] (FIG. 9). [Chen, R. F Anal. Lett. 1968, 1(7), 423-428] […] [Striegler 2010] and used here to establish catalytic activity of the newly synthesized crosslinked microgels. The assay was developed in a 96-well plate format to allow fast catalyst screening under various reaction conditions, including lower pH values in future efforts.
# Likewise, a linear correlation between the concentration of the low molecular weight complex Cu2bpdpo (2) and the product formation of the glycoside hydrolysis was observed when the catalyst was used in concentrations up to 12 μM under assay conditions. With a fast screening assay on hand, the hydrolysis of glycoside 6 was evaluated with two different microgel catalysts at 60% crosslinking content: a polymer […] prepared in the presence of galactose and its metal-free, nonactivated analogue ^LPgal. Control experiments were conducted using a microgel ^Cu2LPEG that has the same crosslinking content as those polymers above, but is prepared in the presence of ethylene glycol instead of galactose. Additionally, hydrolysis of 6 was followed in the presence of low molecular weight complex Cu2bpdpo (2) and in the absence of catalyst in the buffer solution itself. The resulting hyperbolic data for the glycoside hydrolyses were analyzed by applying the Michaelis-Menten model to obtain the rate of the reaction (kcat), the substrate affinity (KM), and the rate of the uncatalyzed reaction (knon) in aqueous buffer solution. The catalytic proficiency (kcat/(KM×knon), catalytic efficiency (kcat/KM), and acceleration of the reaction over the uncatalyzed background reaction (kcat/knon) were then calculated therefrom as described (Table 1, FIG. 11).
# Activated microgel catalysts were prepared as described. [Sharma Biomacromolecules 2018] Typical stock solutions were as follows: Cu2bpdpo […] 2 mM, β-galactosidase as described [Sharma ACS Catal. 2018], 4-methylumbelliferyl α-D-galactopyranoside (α-9) 8-9 mM, and 4-methylumbelliferyl […] 3-4 mM. […]
# [7] = physchem
# Description: As the dissociation constant of CEA in water is to the best of our knowledge not reported, we used the structural similarity between CEA and propionic acid to predict the pKa value of CEA as 4.9.42 We then projected the pKa value of a linear CEA-polymer as 5.6, and estimated the pKa value of a crosslinked microgel with 20 mol % of CEA as 10.1 following the method by Fisher and Kunin as described.43 In short, the apparent pKa values of crosslinked microgels were estimated from the pKa(m=1) value of a linear polymer of the monomeric acid as eq 2 pKa,app=pKa(m=1)(2−m) (eq 2) where m is the mol fraction of the monomeric acid. The dissociation constant of the linear polymer is estimated graphically by extrapolation.
# [8] = broth microdilution, 37° C., 2.5×10^5 CFU/mL
# [9] = 5 mM aqueous HEPES buffer, pH 7.00, 37° C.
# [10] = 50 mM aqueous CAPS buffer, pH 10.50, 37° C.
# [11] = ATCC25923, broth microdilution, 37° C., 2.5×10^5 CFU/mL, read-out: MIC S. aureus
molecule,measurement,setting,value
Benzalkonium chloride,MIC S. aureus,[1]; [8],4.32 ± 0.01 µg/mL
same,MIC E. coli,[2]; [8],117 ± 1 µg/mL
CN[C@H](CC(C)C)C(=O)N[C@H]1C(=O)N[C@@H](CC(N)=O)C(=O)N[C@H]2C(=O)N[C@H]3C(=O)N[C@H](C(=O)N[C@H](C(=O)O)c4cc(O)cc(O)c4-c4cc3ccc4O)[C@H](O)c3ccc(c(Cl)c3)Oc3cc2cc(c3O[C@@H]2O[C@H](CO)[C@@H](O)[C@H](O)[C@H]2O[C@H]2C[C@](C)(N)[C@H](O)[C@H](C)O2)Oc2ccc(cc2Cl)[C@H]1O [Vancomycin],MIC,"[1]; ATCC25923, read-out: MIC S. aureus",2.35 ± 0.14 µg/mL
same,MIC,[2],12.5 ± 0.2 µg/mL
O=C[C@H](O)[C@@H](O)[C@@H](O)[C@H](O)CO [galactose],"pKa, gal",[3],2.70
Cc1ccc(CNC2=NC(CO)C(O)C(O)C2O)cc1 (stereo not drawn) [galactonoamidine 1],stability against hydrolysis,"[4]; 50 mM CAPS buffer, pH 10.50, 72° C.",instant hydrolysis
same,stability against hydrolysis,"[4]; buffer strength lowered to 5 mM, pH 10.50, 72° C.",slowed the hydrolysis
same,stability against hydrolysis,"[4]; pure deuterium oxide, 72° C., 3 h",stable
lysozyme: Hen Egg-white lysozyme purchased from AMRESCO,inhibition of cell growth of E. coli on Müller-Hinton agar plates,[5],inhibition of cell growth to a much smaller extend
β-galactosidase: β-galactosidase (bovine liver),stabilization of enzyme-catalyzed hydrolysis relative to microgel ^Cu2LP1,[6]; pH 7,3.5×106 fold
same,catalytic proficiency relative to low molecular weight complex Cu2bpdpo,"[6]; substrate 6 / β-9, pH 10.50, CAPS, 37° C.",about 3250 fold
same,Km,[6]; [9],110 ± 220 µM
same,kcat,[6]; [9],4.6 ± 0.1 min⁻¹
same,Km,[6]; [10],540 ± 60 µM
same,kcat,[6]; [10],2.95 ± 0.09 10^−3 min^−1
same,catalytic proficiency higher than that of amidine-templated microgel ^Cu2LP1,"[6]; β-9, alkaline solution, pH 10.50",about 57 fold
"C=CC(=O)OCCC(=O)O [CEA monomer, carboxyethyl acrylate]",pKa,[7],4.9
"CCCCCCCCCCCCOS(=O)(=O)[O-].[Na+] [SDS, sodium dodecyl sulfate]",MIC,[1]; [11],122 ± 1 µg/mL
same,MIC,[2]; [8],325 ± 11 µg/mL
O=C(N[C@H](CO)[C@H](O)c1ccc([N+](=O)[O-])cc1)C(Cl)Cl [Chloramphenicol],MIC,[1]; [11],6.11 ± 0.02 µg/mL
same,MIC,[2]; [8],1.29 ± 0.04 µg/mL
